Laboratory results taken from paper PMC3985299, “Single Ascending Dose Safety and Pharmacokinetics of CDRI-97/78: First-in-Human Study of a Novel Antimalarial Drug” (Malaria Research and Treatment, 2014).

Test system: healthy human volunteers
Test: Single ascending dose study: biochemical parameters (liver function tests, serum electrolytes)
Type: in vivo
Parameters: Total serum bilirubin / Serum SGOT / Serum SGPT: unit not given here
Excerpt: The study was approved by the Institute's Ethics Committee. The single ascending dose study and the pharmacokinetic study are registered with Central Trial Registry of India (CTRI/2012/07/002812; CTRI/2012/07/002832). Normal healthy male volunteers in the age group of 18–45 years were invited to join the trial. A detailed informed consent process of the volunteers was undertaken and screening of the volunteers was done after obtaining informed consent. They were recruited through contacts and hospital employees were excluded. The health status of the volunteers was determined by taking medical history, physical examination, routine haematology (haemoglobin, total lymphocyte count, differential count, and platelet count), clinical biochemistry (serum glutamic oxaloacetic transaminase (SGOT), serum glutamic pyruvic transaminase (SGPT), serum bilirubin, serum creatinine, blood urea, serum electrolytes, random blood sugar, total protein, and serum lipid profile), and urine and stool analysis (routine examination and microscopy). The volunteers were asked to report to the study site after 12 hours of fasting for the blood tests. Chest X-ray and 12-lead ECG were also taken. The participants were also screened for human immunodeficiency virus (HIV) and hepatitis B. The volunteers after giving informed consent were screened. The screening process was done latest within 1 month of admission for dosing. The volunteers who fulfilled the inclusion/exclusion criteria were admitted in the CPU the night before drug administration. Standardized dinner was served at 9 pm the night prior to dosing. On day 0, baseline blood sample for biochemical and haematological examination and stool and urine samples for routine and microscopy were taken. They received the study drug, according to the randomization sequence, under supervision. The empty packaging was returned to the container. The volunteers received drug as per randomization. Breakfast was given half an hour after drug administration. Subsequently, standardized lunch and dinner were served to the volunteers. The subjects were attached to a cardiac monitor and vital HR, BP, ECG, oxygen saturation, and RR were recorded. Corrected QT interval using Fridericia's formula was calculated. Adverse events were assessed at specific time points (0.5, 1, 2, 4, 6, 8, 12, and 24 hrs after medication). Unscheduled monitoring was undertaken whenever it felt necessary. The volunteers were discharged after 24 hrs and they had to return at 48 hrs and on the 7th day for follow-up. At the end of the 7th day, they were said to have completed the study. Routine haematological and biochemical investigations were performed at 0 hr, 24 hrs after drug administration, and on day 7. The study was monitored by a Data Safety Monitoring Board.

## C=C(c1ccc(OC(C)(C)COC(=O)CCC(=O)O)cc1)C1COC2(OO1)C1CC3CC(C1)CC2C3 (centres unmarked) [CDRI 97/78, Mono[2methyl2[3(1spiro[tricycle[3.3.1.13,7]decane2,3′-[1,2,4]trioxan] 6′-ylethenyl)phenoxy]propyl] ester]
80 mg (n = 6), 24 hour
  Serum Alkaline phosphatase: 102.5 ± 30.09
  Serum SGOT: 23.48 ± 2.88
  Serum SGPT: 26.2 ± 6.6
  Total serum bilirubin: 0.73 ± 0.24
80 mg (n = 6), Baseline
  Serum Alkaline phosphatase: 95.5 ± 26.65
  Serum SGOT: 22.15 ± 6.3
  Serum SGPT: 21.88 ± 10.0
  Total serum bilirubin: 0.82 ± 0.24
80 mg (n = 6), Day 7
  Serum Alkaline phosphatase: 106.83 ± 37.12
  Serum SGOT: 27.7 ± 6.1
  Serum SGPT: 21.8 ± 3.7
  Total serum bilirubin: 0.64 ± 0.23
160 mg (n = 6), 24 hour
  Serum Alkaline phosphatase: 212 ± 67
  Serum SGOT: 33.98 ± 9.69
  Serum SGPT: 39.43 ± 8.08
  Total serum bilirubin: 0.55 ± 0.07
160 mg (n = 6), Baseline
  Serum Alkaline phosphatase: 211.5 ± 68.65
  Serum SGOT: 34.18 ± 7.89
  Serum SGPT: 37.21 ± 4.16
  Total serum bilirubin: 0.76 ± 0.39
160 mg (n = 6), Day 7
  Serum Alkaline phosphatase: 207.17 ± 61.03
  Serum SGOT: 38.33 ± 8.91
  Serum SGPT: 44.5 ± 11.64
  Total serum bilirubin: 0.6 ± 0.06
320 mg (n = 6), 24 hour
  Serum Alkaline phosphatase: 222.5 ± 34.55
  Serum SGOT: 34.17 ± 7.76
  Serum SGPT: 37.33 ± 8.87
  Total serum bilirubin: 0.8 ± 0.4
320 mg (n = 6), Baseline
  Serum Alkaline phosphatase: 242 ± 45.24
  Serum SGOT: 32.83 ± 5.15
  Serum SGPT: 33.83 ± 9.09
  Total serum bilirubin: 0.73 ± 0.52
320 mg (n = 6), Day 7
  Serum Alkaline phosphatase: 235.83 ± 32.49
  Serum SGOT: 35 ± 8.53
  Serum SGPT: 38.33 ± 13.84
  Total serum bilirubin: 0.87 ± 0.59
400 mg (n = 6), 24 hour
  Serum Alkaline phosphatase: 251.67 ± 47.59
  Serum SGOT: 31.5 ± 4.5
  Serum SGPT: 35.17 ± 4.12
  Total serum bilirubin: 0.53 ± 0.05
400 mg (n = 6), Baseline
  Serum Alkaline phosphatase: 232.83 ± 42
  Serum SGOT: 26.67 ± 6.62
  Serum SGPT: 29 ± 5.44
  Total serum bilirubin: 0.52 ± 0.04
400 mg (n = 6), Day 7
  Serum Alkaline phosphatase: 242.83 ± 34.82
  Serum SGOT: 32.33 ± 8.87
  Serum SGPT: 38 ± 12.95
  Total serum bilirubin: 0.55 ± 0.08
500 mg (n = 6), 24 hour
  Serum Alkaline phosphatase: 313 ± 124.5
  Serum SGOT: 31.5 ± 6.02
  Serum SGPT: 34.83 ± 11.07
  Total serum bilirubin: 0.52 ± 0.04
500 mg (n = 6), Baseline
  Serum Alkaline phosphatase: 321.17 ± 151
  Serum SGOT: 31.33 ± 8.76
  Serum SGPT: 32.83 ± 11.5
  Total serum bilirubin: 0.52 ± 0.04
500 mg (n = 6), Day 7
  Serum Alkaline phosphatase: 339.67 ± 184.25
  Serum SGOT: 34 ± 6.00
  Serum SGPT: 35.33 ± 10.56
  Total serum bilirubin: 0.53 ± 0.05
600 mg (n = 6), 24 hour
  Serum Alkaline phosphatase: 275.83 ± 61.29
  Serum SGOT: 30.33 ± 6.74
  Serum SGPT: 30.5 ± 8.46
  Total serum bilirubin: 0.8 ± 0.59
600 mg (n = 6), Baseline
  Serum Alkaline phosphatase: 272.5 ± 66.71
  Serum SGOT: 31.17 ± 6.3
  Serum SGPT: 30 ± 7.16
  Total serum bilirubin: 0.8 ± 0.54
600 mg (n = 6), Day 7
  Serum Alkaline phosphatase: 274 ± 75.17
  Serum SGOT: 31.33 ± 5.78
  Serum SGPT: 33.17 ± 10.53
  Total serum bilirubin: 0.82 ± 0.59
700 mg (n = 2), 24 hour
  Serum Alkaline phosphatase: 254 ± 56.57
  Serum SGOT: 40 ± 4.24
  Serum SGPT: 46.5 ± 4.95
  Total serum bilirubin: 0.6 ± 0.14
700 mg (n = 2), Baseline
  Serum Alkaline phosphatase: 261.5 ± 50.2
  Serum SGOT: 35.5 ± 0.71
  Serum SGPT: 46 ± 5.66
  Total serum bilirubin: 0.6 ± 0.14
700 mg (n = 2), Day 7
  Serum Alkaline phosphatase: 260.5 ± 44.55
  Serum SGOT: 34.5 ± 0.71
  Serum SGPT: 40 ± 11.31
  Total serum bilirubin: 0.55 ± 0.07
All time points, all groups
  Serum sodium and serum potassium values vs normal physiological ranges: None of the volunteers had values outside the normal physiological ranges
Any time point of measurement, 80-700 mg and placebo
  Serum bilirubin, SGOT and SGPT, intergroup comparisons: no significant difference
